Each block holds one compound with its values, some of them ahead of it.
Assays:
[1] = target: Activin receptor type-2A (Homo sapiens) (UniProt P27037); assay: Selectivity interaction (Ambit KINOMEscan and KiNATiv profiling in Jurkat cells) EUB0000090b ACVR2A; type: cell-based; details: at 1 µM
[2] = target: Cyclin-dependent kinase 15 (Homo sapiens) (UniProt Q96Q40); assay: Selectivity interaction (KinomeScan (DiscoverX)) EUB0000655a CDK15; details: at 10 µM
[3] = target: Protein-tyrosine kinase 2-beta (Homo sapiens) (UniProt Q14289); assay: Selectivity interaction (SelectScreen profiling (Invitrogen)) EUB0000607a PTK2B; details: at 2 µM
[4] = target: T1, Mixed lineage kinase domain-like protein (Homo sapiens) (UniProt Q8NB16); assay: Selectivity interaction (Kinase panel (KiNativ target engagement assay in Jurkat cells)) EUB0001635a MLKL; type: cell-based; details: at 1 µM
T1 sequence (whole entry): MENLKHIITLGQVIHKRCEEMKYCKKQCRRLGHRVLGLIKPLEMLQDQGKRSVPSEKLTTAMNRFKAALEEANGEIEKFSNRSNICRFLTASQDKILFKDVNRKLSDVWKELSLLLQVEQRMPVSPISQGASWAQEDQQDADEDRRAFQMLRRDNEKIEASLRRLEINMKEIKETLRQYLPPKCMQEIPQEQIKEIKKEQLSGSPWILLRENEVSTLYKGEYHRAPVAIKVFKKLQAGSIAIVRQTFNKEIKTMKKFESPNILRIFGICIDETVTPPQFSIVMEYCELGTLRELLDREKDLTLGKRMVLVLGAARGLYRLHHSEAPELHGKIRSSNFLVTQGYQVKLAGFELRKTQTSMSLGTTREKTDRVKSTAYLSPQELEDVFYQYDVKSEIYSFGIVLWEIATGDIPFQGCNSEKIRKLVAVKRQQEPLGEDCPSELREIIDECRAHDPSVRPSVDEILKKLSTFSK

[5] = target: Serine/threonine-protein kinase SIK3 (Homo sapiens) (UniProt Q9Y2K2); details: at 10 µM
[6] = target: T2, Tyrosine-protein kinase ZAP-70 (Homo sapiens, UniProt P43403)
T2 sequence (P43403 whole entry): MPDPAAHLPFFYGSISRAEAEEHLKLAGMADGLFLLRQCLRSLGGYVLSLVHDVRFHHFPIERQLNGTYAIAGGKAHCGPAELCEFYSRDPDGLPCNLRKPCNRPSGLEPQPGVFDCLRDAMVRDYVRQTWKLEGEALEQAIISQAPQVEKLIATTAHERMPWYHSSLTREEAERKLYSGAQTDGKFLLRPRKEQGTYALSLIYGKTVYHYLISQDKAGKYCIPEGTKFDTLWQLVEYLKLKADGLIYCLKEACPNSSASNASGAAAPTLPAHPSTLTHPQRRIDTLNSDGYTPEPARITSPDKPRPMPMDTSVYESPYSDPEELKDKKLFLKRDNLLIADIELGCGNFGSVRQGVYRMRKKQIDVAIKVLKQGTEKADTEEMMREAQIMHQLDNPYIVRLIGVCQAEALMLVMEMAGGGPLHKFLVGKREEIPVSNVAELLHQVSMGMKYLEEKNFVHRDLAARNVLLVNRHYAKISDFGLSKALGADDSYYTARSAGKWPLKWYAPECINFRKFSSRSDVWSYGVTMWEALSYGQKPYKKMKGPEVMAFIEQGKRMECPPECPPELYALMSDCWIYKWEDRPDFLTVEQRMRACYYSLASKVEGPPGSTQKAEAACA

[7] = target: T3, Serine/threonine-protein kinase D1 (Homo sapiens) (UniProt Q15139); assay: Selectivity interaction (KinomeScan (DiscoverX)) EUB0001049a PRKD1; details: at 1 µM
T3 sequence (whole entry): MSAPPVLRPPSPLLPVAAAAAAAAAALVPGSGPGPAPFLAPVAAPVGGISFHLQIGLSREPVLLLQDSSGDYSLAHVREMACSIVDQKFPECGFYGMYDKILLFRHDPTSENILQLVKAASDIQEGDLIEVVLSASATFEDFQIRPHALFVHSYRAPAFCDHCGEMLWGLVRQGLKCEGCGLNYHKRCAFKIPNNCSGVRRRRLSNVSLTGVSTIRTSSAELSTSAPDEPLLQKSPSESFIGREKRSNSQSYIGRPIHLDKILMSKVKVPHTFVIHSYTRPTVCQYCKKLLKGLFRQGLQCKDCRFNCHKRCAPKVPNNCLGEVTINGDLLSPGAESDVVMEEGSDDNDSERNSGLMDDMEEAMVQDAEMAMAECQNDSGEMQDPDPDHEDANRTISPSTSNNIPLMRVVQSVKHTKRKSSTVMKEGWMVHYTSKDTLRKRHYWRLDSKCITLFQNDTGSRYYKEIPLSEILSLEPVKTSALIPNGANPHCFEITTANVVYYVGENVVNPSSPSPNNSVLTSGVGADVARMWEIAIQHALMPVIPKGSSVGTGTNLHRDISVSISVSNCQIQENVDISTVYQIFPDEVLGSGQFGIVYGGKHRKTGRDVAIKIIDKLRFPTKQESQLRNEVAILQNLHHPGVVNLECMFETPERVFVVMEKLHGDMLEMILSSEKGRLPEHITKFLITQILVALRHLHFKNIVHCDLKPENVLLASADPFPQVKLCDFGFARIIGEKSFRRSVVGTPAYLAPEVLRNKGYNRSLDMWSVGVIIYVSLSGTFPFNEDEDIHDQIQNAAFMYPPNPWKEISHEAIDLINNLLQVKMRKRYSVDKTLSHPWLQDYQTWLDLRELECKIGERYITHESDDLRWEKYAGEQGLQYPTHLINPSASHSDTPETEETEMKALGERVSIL

Adenosine receptor A2a = Adenosine receptor A2a (Homo sapiens, UniProt P29274); assay: Selectivity interaction (Adenosine 2A receptor binding assay, human recombinant ) EUB0000877a ADORA2A
[8] = target: T4, Muscarinic acetylcholine receptor M2 (Homo sapiens) (UniProt P08172); assay: Selectivity interaction (Panel of kinases, GPCRs, ion channels and transporters (enzymatic assay)) EUB0000266bCl CHRM2
T4 sequence (whole entry): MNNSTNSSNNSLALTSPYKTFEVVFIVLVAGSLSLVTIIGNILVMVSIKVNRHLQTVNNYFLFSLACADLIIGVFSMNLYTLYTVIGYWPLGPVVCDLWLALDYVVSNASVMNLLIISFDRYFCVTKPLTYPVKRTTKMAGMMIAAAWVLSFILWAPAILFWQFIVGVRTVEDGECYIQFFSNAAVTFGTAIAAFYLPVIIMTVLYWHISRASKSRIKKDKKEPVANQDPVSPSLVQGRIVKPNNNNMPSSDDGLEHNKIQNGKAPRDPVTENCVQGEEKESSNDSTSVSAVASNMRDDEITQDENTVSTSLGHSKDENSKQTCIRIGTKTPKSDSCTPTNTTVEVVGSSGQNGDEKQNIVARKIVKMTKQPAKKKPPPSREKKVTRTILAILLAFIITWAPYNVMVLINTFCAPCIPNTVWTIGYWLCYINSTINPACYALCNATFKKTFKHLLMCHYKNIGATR

[9] = target: Mitogen-activated protein kinase 4 (Homo sapiens) (UniProt P31152); assay: Selectivity interaction (KinomeScan (DiscoverX)) EUB0000092b MAPK4; details: at 10 µM
Sequence of Mitogen-activated protein kinase 4 (Homo sapiens) (P31152 whole entry): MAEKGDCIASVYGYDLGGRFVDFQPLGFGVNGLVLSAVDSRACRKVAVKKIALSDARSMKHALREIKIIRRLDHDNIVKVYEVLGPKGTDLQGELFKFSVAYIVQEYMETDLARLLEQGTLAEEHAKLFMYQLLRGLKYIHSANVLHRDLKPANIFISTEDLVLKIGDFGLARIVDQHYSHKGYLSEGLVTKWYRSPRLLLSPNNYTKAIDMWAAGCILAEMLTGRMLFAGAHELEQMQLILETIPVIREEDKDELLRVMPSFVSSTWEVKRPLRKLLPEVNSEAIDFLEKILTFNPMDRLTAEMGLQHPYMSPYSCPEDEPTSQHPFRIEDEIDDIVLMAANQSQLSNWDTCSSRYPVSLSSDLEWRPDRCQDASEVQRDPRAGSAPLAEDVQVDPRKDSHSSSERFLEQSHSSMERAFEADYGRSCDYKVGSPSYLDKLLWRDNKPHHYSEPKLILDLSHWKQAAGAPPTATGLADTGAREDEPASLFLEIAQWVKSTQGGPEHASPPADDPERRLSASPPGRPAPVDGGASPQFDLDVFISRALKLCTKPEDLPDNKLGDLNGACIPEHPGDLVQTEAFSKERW

Sequence of Protein-tyrosine kinase 2-beta (Homo sapiens) (Q14289 whole entry, looked up, the tested form may be a part): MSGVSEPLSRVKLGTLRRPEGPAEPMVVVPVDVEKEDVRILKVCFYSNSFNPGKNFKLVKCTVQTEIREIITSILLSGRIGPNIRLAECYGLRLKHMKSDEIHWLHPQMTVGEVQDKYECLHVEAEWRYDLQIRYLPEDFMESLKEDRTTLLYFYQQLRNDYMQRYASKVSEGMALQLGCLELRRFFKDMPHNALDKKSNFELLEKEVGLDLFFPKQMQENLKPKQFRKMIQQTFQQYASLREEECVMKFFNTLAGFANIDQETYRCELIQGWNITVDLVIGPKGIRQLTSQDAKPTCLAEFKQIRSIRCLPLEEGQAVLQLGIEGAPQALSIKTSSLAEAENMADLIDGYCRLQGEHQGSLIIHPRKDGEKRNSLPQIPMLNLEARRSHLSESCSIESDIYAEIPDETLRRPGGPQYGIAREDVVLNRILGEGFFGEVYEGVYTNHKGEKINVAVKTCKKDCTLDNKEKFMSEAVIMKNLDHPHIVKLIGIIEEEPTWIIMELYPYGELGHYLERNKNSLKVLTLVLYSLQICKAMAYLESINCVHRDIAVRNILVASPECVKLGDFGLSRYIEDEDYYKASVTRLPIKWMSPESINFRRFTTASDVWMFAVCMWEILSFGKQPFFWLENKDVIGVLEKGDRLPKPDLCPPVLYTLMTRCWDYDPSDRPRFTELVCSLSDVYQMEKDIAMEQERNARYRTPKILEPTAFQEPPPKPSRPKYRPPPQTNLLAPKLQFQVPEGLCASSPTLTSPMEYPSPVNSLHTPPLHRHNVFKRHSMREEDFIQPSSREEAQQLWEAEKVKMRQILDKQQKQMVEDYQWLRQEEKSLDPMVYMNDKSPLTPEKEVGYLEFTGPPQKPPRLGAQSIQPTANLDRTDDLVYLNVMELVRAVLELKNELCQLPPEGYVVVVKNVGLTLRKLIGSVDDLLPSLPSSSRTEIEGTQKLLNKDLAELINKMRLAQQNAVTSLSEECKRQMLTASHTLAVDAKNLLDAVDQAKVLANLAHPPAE
Sequence of Activin receptor type-2A (Homo sapiens) (P27037 whole entry): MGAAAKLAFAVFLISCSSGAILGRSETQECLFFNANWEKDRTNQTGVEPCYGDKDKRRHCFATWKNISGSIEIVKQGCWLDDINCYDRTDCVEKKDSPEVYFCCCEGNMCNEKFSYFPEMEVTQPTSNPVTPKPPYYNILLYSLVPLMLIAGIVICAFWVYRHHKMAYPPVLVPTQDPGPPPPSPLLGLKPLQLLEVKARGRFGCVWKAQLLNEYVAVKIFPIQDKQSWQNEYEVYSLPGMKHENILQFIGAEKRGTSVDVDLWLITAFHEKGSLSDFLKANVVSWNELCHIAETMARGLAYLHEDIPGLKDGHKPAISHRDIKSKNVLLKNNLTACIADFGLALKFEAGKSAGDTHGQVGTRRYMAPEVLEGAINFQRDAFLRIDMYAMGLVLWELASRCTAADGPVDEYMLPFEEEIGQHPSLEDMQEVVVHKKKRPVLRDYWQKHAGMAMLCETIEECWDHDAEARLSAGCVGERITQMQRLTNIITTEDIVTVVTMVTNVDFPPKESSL
Sequence of Adenosine receptor A2a (P29274 whole entry): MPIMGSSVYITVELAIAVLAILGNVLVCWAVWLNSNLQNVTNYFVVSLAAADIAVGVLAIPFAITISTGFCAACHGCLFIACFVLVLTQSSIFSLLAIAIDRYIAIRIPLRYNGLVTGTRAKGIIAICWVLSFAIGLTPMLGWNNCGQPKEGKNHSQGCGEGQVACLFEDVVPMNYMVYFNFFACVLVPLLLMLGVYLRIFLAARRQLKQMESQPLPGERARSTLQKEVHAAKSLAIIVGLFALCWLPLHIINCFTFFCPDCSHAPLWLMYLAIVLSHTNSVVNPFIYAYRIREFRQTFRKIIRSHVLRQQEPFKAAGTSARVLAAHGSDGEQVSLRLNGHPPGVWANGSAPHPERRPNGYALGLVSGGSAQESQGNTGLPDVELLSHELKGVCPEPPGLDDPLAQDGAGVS
Sequence of Serine/threonine-protein kinase SIK3 (Homo sapiens) (Q9Y2K2 whole entry, looked up): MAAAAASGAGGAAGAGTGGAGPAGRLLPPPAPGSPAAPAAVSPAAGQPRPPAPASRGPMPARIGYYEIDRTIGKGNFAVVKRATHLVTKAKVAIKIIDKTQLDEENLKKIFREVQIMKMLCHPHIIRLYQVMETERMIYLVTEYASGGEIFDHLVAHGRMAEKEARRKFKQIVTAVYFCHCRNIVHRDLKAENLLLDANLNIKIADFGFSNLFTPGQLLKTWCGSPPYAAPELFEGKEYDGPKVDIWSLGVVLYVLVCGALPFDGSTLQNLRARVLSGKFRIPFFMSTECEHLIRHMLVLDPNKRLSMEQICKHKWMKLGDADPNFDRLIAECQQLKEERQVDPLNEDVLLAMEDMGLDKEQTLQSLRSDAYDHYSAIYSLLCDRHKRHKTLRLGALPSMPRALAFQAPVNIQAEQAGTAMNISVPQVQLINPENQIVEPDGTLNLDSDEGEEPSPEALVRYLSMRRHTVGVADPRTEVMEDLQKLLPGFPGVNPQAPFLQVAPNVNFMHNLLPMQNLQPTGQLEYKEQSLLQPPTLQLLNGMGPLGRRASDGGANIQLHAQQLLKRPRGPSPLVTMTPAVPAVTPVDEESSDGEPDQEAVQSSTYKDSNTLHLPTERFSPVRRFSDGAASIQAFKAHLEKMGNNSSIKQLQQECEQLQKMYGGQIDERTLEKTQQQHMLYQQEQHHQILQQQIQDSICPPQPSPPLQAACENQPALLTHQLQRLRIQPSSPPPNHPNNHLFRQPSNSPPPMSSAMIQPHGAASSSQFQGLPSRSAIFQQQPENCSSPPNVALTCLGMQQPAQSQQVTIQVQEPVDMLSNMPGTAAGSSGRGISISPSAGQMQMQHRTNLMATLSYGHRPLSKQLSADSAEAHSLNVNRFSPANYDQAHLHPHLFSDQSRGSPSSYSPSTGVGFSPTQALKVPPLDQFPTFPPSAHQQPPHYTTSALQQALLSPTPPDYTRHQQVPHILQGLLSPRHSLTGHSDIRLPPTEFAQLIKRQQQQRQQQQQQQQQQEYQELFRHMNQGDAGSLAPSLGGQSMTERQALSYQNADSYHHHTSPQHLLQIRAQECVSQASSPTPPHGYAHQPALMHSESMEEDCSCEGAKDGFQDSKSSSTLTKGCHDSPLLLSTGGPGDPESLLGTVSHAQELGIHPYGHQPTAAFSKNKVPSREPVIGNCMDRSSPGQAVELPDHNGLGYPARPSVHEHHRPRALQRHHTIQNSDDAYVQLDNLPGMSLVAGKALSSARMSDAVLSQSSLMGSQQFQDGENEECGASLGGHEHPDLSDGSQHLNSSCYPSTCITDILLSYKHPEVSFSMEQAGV
Sequence of Cyclin-dependent kinase 15 (Homo sapiens) (Q96Q40 whole entry): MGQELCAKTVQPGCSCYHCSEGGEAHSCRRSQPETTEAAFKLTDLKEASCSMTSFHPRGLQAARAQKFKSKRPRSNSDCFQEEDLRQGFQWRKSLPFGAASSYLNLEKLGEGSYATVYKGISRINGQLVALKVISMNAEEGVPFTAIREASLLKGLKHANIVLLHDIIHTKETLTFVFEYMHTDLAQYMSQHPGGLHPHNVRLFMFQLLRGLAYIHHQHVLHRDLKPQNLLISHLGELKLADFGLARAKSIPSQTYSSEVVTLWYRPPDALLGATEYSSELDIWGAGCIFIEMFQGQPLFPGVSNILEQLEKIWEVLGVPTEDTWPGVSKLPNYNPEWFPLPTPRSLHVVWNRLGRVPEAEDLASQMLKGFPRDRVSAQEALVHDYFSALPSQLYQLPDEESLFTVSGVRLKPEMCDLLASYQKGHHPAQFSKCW

Structure (SMILES): CN(C)C/C=C/C(=O)Nc1ccc(C(=O)N2CCCC(Nc3ncc(Cl)c(-c4c[nH]c5ccccc45)n3)C2)cc1 (stereo not given)
% of control [1]: 83%

Structure (SMILES): CN(C)CCOc1ccc(-c2nc(-c3ccncc3)c(-c3ccc4c(c3)CC/C4=N\O)[nH]2)cc1
% of control [2]: 100%

Structure (SMILES): CNC(=O)Nc1ccc(-c2nc(N3CC4CCC(C3)O4)c3cnn(C4CCC5(CC4)OCCO5)c3n2)cc1
% of inhibition [3]: -3%

Structure (SMILES): C=CC(=O)Nc1ccc(C(=O)Nc2[nH]nc3c2CN(C(=O)N[C@H](CN(C)C)c2ccccc2)C3(C)C)cc1
% of engagement [4]: 5.6%

Structure (SMILES): Cc1cc([C@@H](C)Nc2ccccc2C(=O)O)c2nc(N3CCOCC3)cc(=O)n2c1 [AZD-6482]
% of control [5]: 95%

IC50 [6]: > 10 µM
Structure (SMILES): CCc1cccc(CC)c1NC(=O)c1nn(C)c2c1CCc1cnc(Nc3ccc(C(=O)NC4CCN(C)CC4)cc3OC(F)(F)F)nc1-2

Structure (SMILES): COc1cc(Nc2nc(C)cc(-c3cnn4nc(OC)ccc34)n2)cc(C(F)(F)F)c1
% of control [7]: 100%

IC50 (Adenosine receptor A2a): > 30 µM
Structure (SMILES): CCC(=O)N1CC[C@H](Nc2ncnc3c2CN(c2cnc(OC)c(C(F)(F)F)c2)CC3)C1 [LENIOLISIB]

pXC50 [8]: < 4.8 M
Structure (SMILES): CCn1c(-c2nc3cc(C(=O)N4CCCC(N)C4)ccc3n2C)cc2ccccc21 (stereo not given)

Structure (SMILES): CCC(=O)N1CCN(c2ccc(-n3c(=O)ccc4cnc5ccc(-c6cnc7ccccc7c6)cc5c43)cc2C(F)(F)F)CC1
% of control [9]: 80%
